Legend:
Assay in all cases: Kinase panel profiling at 1 µmol/L (MSA or IMAP), percentage inhibition
Type in all cases: biochemical
[1] = biological target: T1, panel of 255 wild-type kinases (Homo sapiens, UniProt P21709); settings: kinase EPHA1; 1 µmol/L single concentration; read-out: %-inhibition at 1 µmol/L, EPHA1
T1 sequence (P21709 26-976): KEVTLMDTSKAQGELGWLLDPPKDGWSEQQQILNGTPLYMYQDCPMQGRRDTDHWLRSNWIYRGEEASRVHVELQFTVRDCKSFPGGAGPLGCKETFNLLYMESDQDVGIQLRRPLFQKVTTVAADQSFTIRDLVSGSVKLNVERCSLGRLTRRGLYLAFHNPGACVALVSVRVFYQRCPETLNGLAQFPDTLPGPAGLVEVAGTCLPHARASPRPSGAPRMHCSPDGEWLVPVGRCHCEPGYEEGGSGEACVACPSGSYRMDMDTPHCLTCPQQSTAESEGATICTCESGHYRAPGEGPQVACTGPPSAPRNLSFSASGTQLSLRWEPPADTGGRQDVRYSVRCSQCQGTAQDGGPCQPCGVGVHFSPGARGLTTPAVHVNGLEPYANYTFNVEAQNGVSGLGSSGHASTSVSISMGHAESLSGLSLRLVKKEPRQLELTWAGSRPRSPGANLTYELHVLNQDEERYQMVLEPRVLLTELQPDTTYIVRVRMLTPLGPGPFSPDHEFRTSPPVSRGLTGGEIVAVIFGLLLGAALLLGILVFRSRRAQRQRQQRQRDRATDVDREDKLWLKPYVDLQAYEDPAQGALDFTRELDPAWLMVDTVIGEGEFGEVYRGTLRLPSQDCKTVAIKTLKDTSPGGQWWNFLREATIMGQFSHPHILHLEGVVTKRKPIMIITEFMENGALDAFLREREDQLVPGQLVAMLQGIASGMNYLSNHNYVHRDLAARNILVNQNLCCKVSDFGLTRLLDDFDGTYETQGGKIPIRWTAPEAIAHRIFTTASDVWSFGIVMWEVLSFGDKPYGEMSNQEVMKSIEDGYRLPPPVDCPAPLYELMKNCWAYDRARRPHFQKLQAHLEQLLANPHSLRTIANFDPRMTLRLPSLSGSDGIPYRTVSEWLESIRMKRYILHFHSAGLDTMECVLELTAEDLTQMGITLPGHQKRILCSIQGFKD

[2] = biological target: panel of 255 wild-type kinases (Homo sapiens, UniProt Q9NYY3); settings: kinase PLK2; 1 µmol/L single concentration; read-out: %-inhibition at 1 µmol/L, PLK2
[3] = biological target: panel of 255 wild-type kinases (Homo sapiens, UniProt Q16644); settings: MAPKAPK3; 1 µmol/L single concentration; read-out: %-inhibition, MAPKAPK3
[4] = biological target: T2, panel of 255 wild-type kinases (Homo sapiens, UniProt Q8TF76); settings: kinase Haspin; 1 µmol/L single concentration; read-out: %-inhibition at 1 µmol/L, Haspin
T2 sequence (Q8TF76 1-798): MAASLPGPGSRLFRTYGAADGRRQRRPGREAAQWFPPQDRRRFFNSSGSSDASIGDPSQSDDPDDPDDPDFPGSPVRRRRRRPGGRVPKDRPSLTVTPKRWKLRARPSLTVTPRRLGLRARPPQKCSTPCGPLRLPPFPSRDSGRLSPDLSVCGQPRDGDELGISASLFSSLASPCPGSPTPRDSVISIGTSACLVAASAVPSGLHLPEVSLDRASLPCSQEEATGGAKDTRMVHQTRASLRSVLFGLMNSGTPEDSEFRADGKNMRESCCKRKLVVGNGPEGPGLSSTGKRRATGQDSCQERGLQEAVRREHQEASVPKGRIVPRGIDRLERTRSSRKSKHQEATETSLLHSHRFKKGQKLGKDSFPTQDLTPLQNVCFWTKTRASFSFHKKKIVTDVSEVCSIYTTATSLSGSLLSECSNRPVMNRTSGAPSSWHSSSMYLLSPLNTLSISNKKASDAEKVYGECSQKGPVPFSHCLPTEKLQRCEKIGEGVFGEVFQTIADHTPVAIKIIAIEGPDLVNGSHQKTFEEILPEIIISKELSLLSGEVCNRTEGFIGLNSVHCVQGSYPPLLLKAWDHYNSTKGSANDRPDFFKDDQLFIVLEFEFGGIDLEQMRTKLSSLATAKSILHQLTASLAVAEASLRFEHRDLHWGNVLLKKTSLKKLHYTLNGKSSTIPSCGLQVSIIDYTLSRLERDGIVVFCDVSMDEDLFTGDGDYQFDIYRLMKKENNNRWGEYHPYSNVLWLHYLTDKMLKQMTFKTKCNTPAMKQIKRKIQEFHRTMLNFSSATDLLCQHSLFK

[5] = biological target: panel of 255 wild-type kinases (Homo sapiens, UniProt Q9UM73); settings: ALK kinase assay; 1 µmol/L single concentration; read-out: %-inhibition ALK
[6] = biological target: T3, panel of 255 wild-type kinases (Homo sapiens, UniProt Q8IWQ3); settings: BRSK2 kinase assay; 1 µmol/L single concentration; read-out: %-inhibition BRSK2
T3 sequence (Q8IWQ3 1-736): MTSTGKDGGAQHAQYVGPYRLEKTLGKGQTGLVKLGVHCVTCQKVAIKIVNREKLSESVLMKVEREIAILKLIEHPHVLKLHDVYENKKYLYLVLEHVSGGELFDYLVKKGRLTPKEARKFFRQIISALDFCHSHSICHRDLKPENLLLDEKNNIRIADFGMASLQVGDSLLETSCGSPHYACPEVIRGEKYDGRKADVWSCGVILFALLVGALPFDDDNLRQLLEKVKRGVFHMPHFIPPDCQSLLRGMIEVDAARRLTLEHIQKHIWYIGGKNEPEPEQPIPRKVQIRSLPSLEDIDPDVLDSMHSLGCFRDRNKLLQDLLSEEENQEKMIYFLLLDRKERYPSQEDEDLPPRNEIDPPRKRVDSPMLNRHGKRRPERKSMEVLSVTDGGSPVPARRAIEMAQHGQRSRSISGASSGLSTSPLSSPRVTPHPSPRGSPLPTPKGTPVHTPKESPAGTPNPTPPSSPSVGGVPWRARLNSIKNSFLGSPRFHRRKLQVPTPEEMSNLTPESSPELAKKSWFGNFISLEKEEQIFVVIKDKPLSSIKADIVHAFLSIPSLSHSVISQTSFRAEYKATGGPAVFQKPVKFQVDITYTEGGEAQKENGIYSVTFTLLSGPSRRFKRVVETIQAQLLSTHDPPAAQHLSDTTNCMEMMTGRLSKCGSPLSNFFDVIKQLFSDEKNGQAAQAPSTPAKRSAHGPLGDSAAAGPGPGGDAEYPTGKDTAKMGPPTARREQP

`C=CC(=O)N1CCC([C@@H]2CCNc3c(C(N)=O)c(-c4ccc(Oc5ccccc5)cc4)nn32)CC1` [zanubrutinib] gave an inhibition at 1 µM [1] of -0.68%, an inhibition at 1 µM [2] of 0.329% and an inhibition at 1 µM [3] of -12%. For the same compound, the inhibition at 1 µM [4] was -1.75%, the inhibition at 1 µM [5] was 2.23% and the inhibition at 1 µM [6] was 0.0746%.
